# Source: ChEMBL document CHEMBL3217578, “Synthesis of a novel thiophene derivative that induces cancer cell apoptosis through modulation of AKT and MAPK pathways” (Medchemcomm, 2012)
# Active and inactive are the calls of the source. No cut-off for these calls is given here.
# Legend:
# [1] = Cytotoxicity against human HeLa 229 cells after 72 hrs by MTT assay; format: functional, cell-based; conditions: HeLa 229, 72 h
# [2] = Antioxidant activity assessed as ABTS free radical scavenging activity; format: functional; conditions: TDE = time-dependent effect
# Neuro2a [3] = test: Inhibition of JNK phosphorylation in mouse Neuro2a cells at 8 ug/ml after 24 hrs by Western blot analysis relative to beta-actin; format: cell-based
# [4] = Cytotoxicity against human MG63 cells after 72 hrs by MTT assay; format: functional, cell-based; conditions: MG-63, 72 h
# Neuro2a [5] = test: Inhibition of ERK phosphorylation in mouse Neuro2a cells at 8 ug/ml after 24 hrs by Western blot analysis relative to beta-actin; format: cell-based
# N2a [6] = test: Induction of apoptosis in mouse Neuro2a cells assessed as activation of caspase-8 using IETD-AFC as substrate by fluorometric assay; format: functional, cell-based
# Neuro2a [7] = test: Inhibition of ERK phosphorylation in mouse Neuro2a cells assessed as total protein level at 4 ug/ml after 24 hrs by Western blot analysis relative to beta-actin; format: cell-based
# Neuro2a [8] = test: Inhibition of JNK phosphorylation in mouse Neuro2a cells assessed as total protein level at 2 ug/ml after 24 hrs by Western blot analysis relative to beta-actin; format: cell-based
# [9] = molecular target: RAC-alpha serine/threonine-protein kinase (Mus musculus) (UniProt P31750); test: Inhibition of AKT phosphorylation in mouse Neuro2a cells at 8 ug/ml after 24 hrs by Western blot analysis relative to beta-actin; format: cell-based
# Neuro2a [10] = test: Inhibition of JNK phosphorylation in mouse Neuro2a cells at 4 ug/ml after 24 hrs by Western blot analysis relative to beta-actin; format: cell-based
# [11] = Cell cycle arrest in mouse Neuro2a cells assessed as accumulation at S phase at 8 ug/ml after 72 hrs using propidium iodide staining by flow cytometry analysis (reference value: 48.5%); format: functional, cell-based; conditions: N2a
# [12] = molecular target: RAC-alpha serine/threonine-protein kinase (Mus musculus) (UniProt P31750); test: Inhibition of AKT phosphorylation in mouse Neuro2a cells at 2 ug/ml after 24 hrs by Western blot analysis relative to beta-actin; format: cell-based
# N2a [13] = test: Induction of apoptosis in mouse Neuro2a cells assessed as reduction of ROS production after 3 hrs by DCF fluorescence assay; format: functional, cell-based
# Neuro2a [14] = test: Inhibition of ERK phosphorylation in mouse Neuro2a cells assessed as total protein level at 8 ug/ml after 24 hrs by Western blot analysis relative to beta-actin; format: cell-based
# N2a [15] = test: Induction of apoptosis in mouse Neuro2a cells assessed as activation of caspase-9 using Ac-LEHD-AFC as substrate by fluorometric assay; format: functional, cell-based
# Neuro2a [16] = test: Inhibition of ERK phosphorylation in mouse Neuro2a cells at 4 ug/ml after 24 hrs by Western blot analysis relative to beta-actin; format: cell-based
# Neuro2a [17] = test: Inhibition of ERK phosphorylation in mouse Neuro2a cells at 2 ug/ml after 24 hrs by Western blot analysis relative to beta-actin; format: cell-based
# Neuro2a [18] = test: Inhibition of JNK phosphorylation in mouse Neuro2a cells at 2 ug/ml after 24 hrs by Western blot analysis relative to beta-actin; format: cell-based
# Neuro2a [19] = test: Inhibition of JNK phosphorylation in mouse Neuro2a cells assessed as total protein level at 4 ug/ml after 24 hrs by Western blot analysis relative to beta-actin; format: cell-based
# A-375 = test: Cytotoxicity against human A375 cells after 72 hrs by MTT assay; format: functional, cell-based; conditions: A-375, 72 h
# [20] = molecular target: RAC-alpha serine/threonine-protein kinase (Mus musculus) (UniProt P31750); test: Inhibition of AKT phosphorylation in mouse Neuro2a cells after 24 hrs by Western blot analysis; format: cell-based
# [21] = (§1) Cytotoxicity against mouse Neuro2a cells after 72 hrs by MTT assay; format: functional, cell-based; conditions: N2a
# N2a [22] = test: as §1; format: functional, cell-based
# [23] = molecular target: T1, MAP kinase p38 (Mus musculus) (UniProt P47811+O08911+Q9WUI1+Q9Z1B7); test: Inhibition of p38 phosphorylation in mouse Neuro2a cells assessed as total protein level at 4 ug/ml after 24 hrs by Western blot analysis relative to beta-actin; format: cell-based
# N2a [24] = test: Induction of apoptosis in mouse Neuro2a cells assessed as DNA fragmentation and nuclear condensation after 24 hrs by TUNEL-DAPI co-staining assay; format: functional, cell-based
# [25] = Cell cycle arrest in mouse Neuro2a cells assessed as accumulation at S phase at 2 ug/ml after 72 hrs using propidium iodide staining by flow cytometry analysis (reference value: 48.5%); format: functional, cell-based; conditions: N2a
# N2a [26] = test: Cytotoxicity against mouse Neuro2a cells at 8 ug/ml after 24 hrs by MTT assay in presence of NAC; format: functional, cell-based
# [27] = Cell cycle arrest in mouse Neuro2a cells assessed as accumulation at sub-G1 phase at 4 ug/ml after 72 hrs using propidium iodide staining by flow cytometry analysis (reference value: 4.7%); format: functional, cell-based; conditions: N2a
# [28] = molecular target: T1, MAP kinase p38 (Mus musculus); test: Inhibition of p38 phosphorylation in mouse Neuro2a cells at 2 to 8 ug/ml after 24 hrs by Western blot analysis; format: cell-based
# [29] = Cell cycle arrest in mouse Neuro2a cells assessed as accumulation at G2/M phase at 8 ug/ml after 72 hrs using propidium iodide staining by flow cytometry analysis (reference value: 9.9%); format: functional, cell-based; conditions: N2a
# [30] = Cell cycle arrest in mouse Neuro2a cells assessed as accumulation at G2/M phase at 2 ug/ml after 72 hrs using propidium iodide staining by flow cytometry analysis (reference value: 9.9%); format: functional, cell-based; conditions: N2a
# [31] = Cell cycle arrest in mouse Neuro2a cells assessed as accumulation at sub-G1 phase at 8 ug/ml after 72 hrs using propidium iodide staining by flow cytometry analysis (reference value: 4.7%); format: functional, cell-based; conditions: N2a
# [32] = Cytotoxicity against human HK2 cells after 72 hrs by MTT assay; format: cell-based; conditions: HK-2, 72 h
# Neuro2a [33] = test: Inhibition of JNK phosphorylation in mouse Neuro2a cells assessed as total protein level at 2 to 8 ug/ml after 24 hrs by Western blot analysis; format: cell-based
# [34] = Cell cycle arrest in mouse Neuro2a cells assessed as accumulation at G0/G1 phase at 4 ug/ml after 72 hrs using propidium iodide staining by flow cytometry analysis (reference value: 41.6%); format: functional, cell-based; conditions: N2a
# [35] = molecular target: RAC-alpha serine/threonine-protein kinase (Mus musculus) (UniProt P31750); test: Inhibition of AKT phosphorylation in mouse Neuro2a cells at 4 ug/ml after 24 hrs by Western blot analysis relative to beta-actin; format: cell-based
# [36] = Cell cycle arrest in mouse Neuro2a cells assessed as accumulation at S phase at 4 ug/ml after 72 hrs using propidium iodide staining by flow cytometry analysis (reference value: 48.5%); format: functional, cell-based; conditions: N2a
# [37] = molecular target: RAC-alpha serine/threonine-protein kinase (Mus musculus) (UniProt P31750); test: Inhibition of AKT phosphorylation in mouse Neuro2a cells assessed as total protein level at 2 ug/ml after 24 hrs by Western blot analysis relative to beta-actin; format: cell-based
# [38] = molecular target: T1, MAP kinase p38 (Mus musculus); test: Inhibition of p38 phosphorylation in mouse Neuro2a cells assessed as total protein level at 8 ug/ml after 24 hrs by Western blot analysis relative to beta-actin; format: cell-based
# PC-3 = test: Cytotoxicity against human PC3 cells after 72 hrs by MTT assay; format: functional, cell-based; conditions: PC-3, 72 h
# N2a [39] = test: Induction of apoptosis in mouse Neuro2a cells assessed as activation of caspase-9 at 4 ug/ml using Ac-LEHD-AFC as substrate by fluorometric assay relative to control; format: functional
# [40] = Cell cycle arrest in mouse Neuro2a cells assessed as accumulation at sub-G1 phase at 2 ug/ml after 72 hrs using propidium iodide staining by flow cytometry analysis (reference value: 4.7%); format: functional, cell-based; conditions: N2a
# [41] = Cell cycle arrest in mouse Neuro2a cells assessed as accumulation at G2/M phase at 4 ug/ml after 72 hrs using propidium iodide staining by flow cytometry analysis (reference value: 9.9%); format: functional, cell-based; conditions: N2a
# Neuro2a [42] = test: Inhibition of ERK phosphorylation in mouse Neuro2a cells assessed as total protein level at 2 ug/ml after 24 hrs by Western blot analysis relative to beta-actin; format: cell-based
# N2a [43] = test: Induction of apoptosis in mouse Neuro2a cells assessed as activation of caspase-3 using Ac-DEVD-AFC as substrate by fluorometric assay; format: functional, cell-based
# [44] = molecular target: RAC-alpha serine/threonine-protein kinase (Mus musculus) (UniProt P31750); test: Inhibition of AKT phosphorylation in mouse Neuro2a cells assessed as total protein level at 4 ug/ml after 24 hrs by Western blot analysis relative to beta-actin; format: cell-based
# [45] = Cell cycle arrest in mouse Neuro2a cells assessed as accumulation at sub-G1 phase after 72 hrs using propidium iodide staining by flow cytometry analysis; format: functional, cell-based; conditions: N2a
# [46] = molecular target: RAC-alpha serine/threonine-protein kinase (Mus musculus) (UniProt P31750); test: Inhibition of AKT phosphorylation in mouse Neuro2a cells assessed as total protein level after 24 hrs by Western blot analysis; format: cell-based
# [47] = Cell cycle arrest in mouse Neuro2a cells assessed as accumulation at G0/G1 phase at 2 ug/ml after 72 hrs using propidium iodide staining by flow cytometry analysis (reference value: 41.6%); format: functional, cell-based; conditions: N2a
# [48] = Cell cycle arrest in mouse Neuro2a cells assessed as accumulation at G0/G1 phase at 8 ug/ml after 72 hrs using propidium iodide staining by flow cytometry analysis (reference value: 41.6%); format: functional, cell-based; conditions: N2a
# N2a [49] = test: Induction of apoptosis in mouse Neuro2a cells assessed as activation of caspase-3 at 8 ug/ml using Ac-[…]-AFC as substrate by fluorometric assay relative to control; format: functional
# [50] = molecular target: T1, MAP kinase p38 (Mus musculus); test: Inhibition of p38 phosphorylation in mouse Neuro2a cells assessed as total protein level at 2 ug/ml after 24 hrs by Western blot analysis relative to beta-actin; format: cell-based
# [51] = molecular target: RAC-alpha serine/threonine-protein kinase (Mus musculus) (UniProt P31750); test: Inhibition of AKT phosphorylation in mouse Neuro2a cells assessed as total protein level at 8 ug/ml after 24 hrs by Western blot analysis relative to beta-actin; format: cell-based
# Neuro2a [52] = test: Inhibition of JNK phosphorylation in mouse Neuro2a cells assessed as total protein level at 8 ug/ml after 24 hrs by Western blot analysis relative to beta-actin; format: cell-based
# RAC-alpha serine/threonine-protein kinase (Mus musculus), sequence (P31750 whole entry): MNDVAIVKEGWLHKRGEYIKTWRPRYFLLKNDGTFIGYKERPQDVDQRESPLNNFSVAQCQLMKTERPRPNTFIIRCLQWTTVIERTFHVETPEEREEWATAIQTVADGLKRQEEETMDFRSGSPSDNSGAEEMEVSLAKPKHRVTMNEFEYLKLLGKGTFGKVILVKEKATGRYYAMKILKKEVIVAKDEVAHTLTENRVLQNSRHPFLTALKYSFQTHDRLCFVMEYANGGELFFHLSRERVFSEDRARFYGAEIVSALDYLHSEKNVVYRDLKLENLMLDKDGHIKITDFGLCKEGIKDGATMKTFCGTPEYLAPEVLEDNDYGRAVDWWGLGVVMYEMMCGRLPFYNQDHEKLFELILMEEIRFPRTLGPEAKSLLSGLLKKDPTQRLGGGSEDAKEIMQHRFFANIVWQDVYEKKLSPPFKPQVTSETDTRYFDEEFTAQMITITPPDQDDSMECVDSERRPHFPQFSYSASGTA
structure (smiles),measurement,setting,value
Oc1ccc(-n2c(-c3cccs3)ccc2-c2cccs2)cc1,IC50,[1],36.4 µg/mL
same,Activity,[2],tde
same,fold change (FC),Neuro2a [3],2.1
same,IC50,[4],39.6 µg/mL
same,fold change (FC),Neuro2a [5],0
same,Activity,N2a [6],Dose-dependent effect
same,fold change (FC),Neuro2a [7],0.6
same,fold change (FC),Neuro2a [8],1
same,fold change (FC),[9],0.1
same,fold change (FC),Neuro2a [10],1.6
same,Activity,[11],38.9%
same,fold change (FC),[12],0.8
same,Activity,N2a [13],Dose-dependent effect
same,fold change (FC),Neuro2a [14],0.6
same,Activity,N2a [15],Dose-dependent effect
same,fold change (FC),Neuro2a [16],0
same,fold change (FC),Neuro2a [17],0
same,fold change (FC),Neuro2a [18],0.9
same,fold change (FC),Neuro2a [19],1
same,IC50,A-375,27.6 µg/mL
same,inhibition,[20],Dose-dependent effect
same,IC50,[21],2.6 µg/mL
same,growth inhibition (GI),N2a [22],Dose-dependent effect
same,fold change (FC),[23],1.6
same,Activity,N2a [24],Dose-dependent effect
same,Activity,[25],48.5%
same,growth inhibition (GI),N2a [26],Active
same,Activity,[27],19.2%
same,inhibition,[28],inactive
same,Activity,[29],15.7%
same,Activity,[30],11.6%
same,Activity,[31],26.3%
same,IC50,[32],73.4 µg/mL
same,inhibition,Neuro2a [33],inactive
same,Activity,[34],46.9%
same,fold change (FC),[35],0.3
same,Activity,[36],42.6%
same,fold change (FC),[37],0.8
same,fold change (FC),[38],1.7
same,IC50,PC-3,51.3 µg/mL
same,fold change (FC),N2a [39],1.4
same,Activity,[40],9.1%
same,Activity,[41],10.5%
same,fold change (FC),Neuro2a [42],1
same,Activity,N2a [43],Dose-dependent effect
same,fold change (FC),[44],0.7
same,Activity,[45],Dose-dependent effect
same,inhibition,[46],Dose-dependent effect
same,Activity,[47],39.9%
same,Activity,[48],44.4%
same,fold change (FC),N2a [49],1.5
same,fold change (FC),[50],1.2
same,fold change (FC),[51],0.4
same,fold change (FC),Neuro2a [52],0.9
O=C(CCC(=O)c1cccs1)c1cccs1,IC50,[1],> 400 µg/mL
same,IC50,[4],366 µg/mL
same,IC50,A-375,115 µg/mL
same,IC50,[21],343 µg/mL
same,IC50,[32],> 400 µg/mL
same,IC50,PC-3,> 400 µg/mL
